The assay deals with ovarian cancer cell line 2774. Briefly: thiazole blue colorimetric method, half inhibitory concentration on ovarian cancer cell line 2774. Format: cell-based.
With `CCC(=O)OC1(CC)C(=O)OCc2c1cc1n(c2=O)Cc2cc3cc(OC)ccc3nc2-1` (stereo not shown) [10-methoxycamptothecin-20-O-propionate], the IC50 – broadly, the concentration needed to halve the response being measured – worked out at 842 ± 50.1 µM.
`CCC1(OC(=O)[C@H](C)NC(=O)OC(C)(C)C)C(=O)OCc2c1cc1n(c2=O)Cc2cc3cc(OC)ccc3nc2-1` (stereo partly drawn) [10-methoxycamptothecin-20-O—(N′-t-butoxycarbonyl)-L-alanine ester] showed an IC50 of 46.7 ± 21.7 µM.
The figure for `CCC1(OC(=O)[C@H](Cc2ccccc2)NC(=O)OC(C)(C)C)C(=O)OCc2c1cc1n(c2=O)Cc2cc3cc(OC)ccc3nc2-1` (stereo partly drawn) [10-methoxycamptothecin-20-O—(N′-t-butoxycarbonyl)-L-phenylalanine ester] is 394 ± 21.7 µM.
With `CCC1(OC(=O)[C@@H](NC(=O)OC(C)(C)C)C(C)C)C(=O)OCc2c1cc1n(c2=O)Cc2cc3cc(OC)ccc3nc2-1` (stereo partly drawn) [10-methoxycamptothecin-20-O—(N′-t-butoxycarbonyl)-L-valine ester], the IC50 worked out at 1970 ± 93.6 µM.
